target: full-length human ATR protein (Homo sapiens (Human), UniProt Q13535); test: Binding assay ATR (TR-FRET tracer displacement); settings: tracer A, TR-FRET; read-out: ATR binding (tracer A) IC50
Procedure, shortened: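 Full-length human GST-ATR co-purified with ATRIP, pre-complexed 30 min at 22 °C with anti-GST-Tb antibody, then pre-bound with compound 10 min. Tracer A or B added (2 µl of 100 nM solution), 30 min at 22 °C.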

full-length human ATR protein, sequence (Q13535 other isoform, or with tags, fused parts or gaps): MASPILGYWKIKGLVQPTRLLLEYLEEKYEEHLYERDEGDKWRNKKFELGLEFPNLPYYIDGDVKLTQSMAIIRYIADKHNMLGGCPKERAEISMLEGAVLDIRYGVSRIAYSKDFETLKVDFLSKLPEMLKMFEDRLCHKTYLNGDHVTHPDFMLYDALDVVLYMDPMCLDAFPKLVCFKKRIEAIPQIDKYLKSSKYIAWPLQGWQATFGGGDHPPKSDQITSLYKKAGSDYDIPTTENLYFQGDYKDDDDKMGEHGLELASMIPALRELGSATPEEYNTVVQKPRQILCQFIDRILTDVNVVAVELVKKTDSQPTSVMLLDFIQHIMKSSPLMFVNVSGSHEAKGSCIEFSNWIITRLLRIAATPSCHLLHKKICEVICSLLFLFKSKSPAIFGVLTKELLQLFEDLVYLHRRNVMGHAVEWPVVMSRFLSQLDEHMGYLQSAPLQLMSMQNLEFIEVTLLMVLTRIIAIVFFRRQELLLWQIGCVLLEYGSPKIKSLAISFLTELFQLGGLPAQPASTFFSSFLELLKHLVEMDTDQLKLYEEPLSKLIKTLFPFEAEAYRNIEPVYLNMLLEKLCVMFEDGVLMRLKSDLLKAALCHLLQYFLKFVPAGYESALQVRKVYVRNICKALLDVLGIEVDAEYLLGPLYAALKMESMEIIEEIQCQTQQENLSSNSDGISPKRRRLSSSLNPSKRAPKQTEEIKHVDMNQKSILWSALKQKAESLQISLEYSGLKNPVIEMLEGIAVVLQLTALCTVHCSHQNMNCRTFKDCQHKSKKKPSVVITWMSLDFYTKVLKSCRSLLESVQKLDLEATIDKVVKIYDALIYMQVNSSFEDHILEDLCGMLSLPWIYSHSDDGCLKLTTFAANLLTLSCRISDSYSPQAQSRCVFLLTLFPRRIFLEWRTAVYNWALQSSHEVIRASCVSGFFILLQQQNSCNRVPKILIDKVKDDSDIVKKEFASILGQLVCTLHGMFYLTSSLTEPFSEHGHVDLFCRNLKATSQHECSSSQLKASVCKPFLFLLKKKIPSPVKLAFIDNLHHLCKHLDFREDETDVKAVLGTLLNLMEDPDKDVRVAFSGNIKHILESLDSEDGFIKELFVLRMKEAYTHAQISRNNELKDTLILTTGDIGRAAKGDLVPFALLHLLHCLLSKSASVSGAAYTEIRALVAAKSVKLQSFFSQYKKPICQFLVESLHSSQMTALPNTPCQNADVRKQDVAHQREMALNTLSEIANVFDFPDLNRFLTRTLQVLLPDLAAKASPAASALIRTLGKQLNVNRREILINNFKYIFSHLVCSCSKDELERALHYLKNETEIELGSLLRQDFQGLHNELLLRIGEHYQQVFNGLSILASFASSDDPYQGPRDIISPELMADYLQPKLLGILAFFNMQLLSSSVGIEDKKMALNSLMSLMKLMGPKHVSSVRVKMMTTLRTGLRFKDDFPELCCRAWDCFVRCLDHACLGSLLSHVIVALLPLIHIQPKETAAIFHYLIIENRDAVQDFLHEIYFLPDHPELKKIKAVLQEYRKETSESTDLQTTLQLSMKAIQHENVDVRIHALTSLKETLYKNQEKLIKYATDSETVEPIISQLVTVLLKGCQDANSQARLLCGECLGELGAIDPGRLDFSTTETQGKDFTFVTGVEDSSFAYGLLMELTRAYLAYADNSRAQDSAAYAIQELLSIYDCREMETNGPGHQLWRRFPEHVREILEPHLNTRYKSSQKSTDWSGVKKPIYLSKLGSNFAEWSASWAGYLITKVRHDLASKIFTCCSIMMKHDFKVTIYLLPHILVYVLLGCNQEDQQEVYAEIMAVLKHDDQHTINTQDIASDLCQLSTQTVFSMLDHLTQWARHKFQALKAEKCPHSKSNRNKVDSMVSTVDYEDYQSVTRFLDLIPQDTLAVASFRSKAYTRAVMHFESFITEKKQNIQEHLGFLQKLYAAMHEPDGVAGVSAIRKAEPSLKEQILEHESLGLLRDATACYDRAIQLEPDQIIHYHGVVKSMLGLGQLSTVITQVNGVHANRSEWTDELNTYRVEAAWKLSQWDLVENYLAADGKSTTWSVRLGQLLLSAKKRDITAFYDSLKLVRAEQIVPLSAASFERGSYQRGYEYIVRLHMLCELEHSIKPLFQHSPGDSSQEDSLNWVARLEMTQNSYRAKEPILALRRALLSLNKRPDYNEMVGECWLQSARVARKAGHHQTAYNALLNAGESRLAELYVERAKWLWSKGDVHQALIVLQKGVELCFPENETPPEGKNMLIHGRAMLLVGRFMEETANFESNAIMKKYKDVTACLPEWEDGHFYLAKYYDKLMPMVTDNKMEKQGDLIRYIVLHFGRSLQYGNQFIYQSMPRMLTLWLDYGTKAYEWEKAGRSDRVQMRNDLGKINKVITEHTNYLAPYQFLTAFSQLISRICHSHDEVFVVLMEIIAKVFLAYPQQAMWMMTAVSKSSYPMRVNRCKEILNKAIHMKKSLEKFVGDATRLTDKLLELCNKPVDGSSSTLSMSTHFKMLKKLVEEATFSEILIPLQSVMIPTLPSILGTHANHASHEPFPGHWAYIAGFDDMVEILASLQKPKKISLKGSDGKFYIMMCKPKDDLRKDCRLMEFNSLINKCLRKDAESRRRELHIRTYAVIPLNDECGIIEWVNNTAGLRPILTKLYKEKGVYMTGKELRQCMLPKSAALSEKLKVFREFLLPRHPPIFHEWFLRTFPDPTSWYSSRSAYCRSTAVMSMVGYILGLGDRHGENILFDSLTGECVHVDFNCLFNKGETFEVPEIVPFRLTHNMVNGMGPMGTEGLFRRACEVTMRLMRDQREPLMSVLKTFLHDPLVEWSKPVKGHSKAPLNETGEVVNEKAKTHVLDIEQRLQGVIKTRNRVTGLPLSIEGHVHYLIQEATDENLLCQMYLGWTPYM
full-length human ATR protein, sequence (Q8WXE1 other isoform, or with tags, fused parts or gaps partner): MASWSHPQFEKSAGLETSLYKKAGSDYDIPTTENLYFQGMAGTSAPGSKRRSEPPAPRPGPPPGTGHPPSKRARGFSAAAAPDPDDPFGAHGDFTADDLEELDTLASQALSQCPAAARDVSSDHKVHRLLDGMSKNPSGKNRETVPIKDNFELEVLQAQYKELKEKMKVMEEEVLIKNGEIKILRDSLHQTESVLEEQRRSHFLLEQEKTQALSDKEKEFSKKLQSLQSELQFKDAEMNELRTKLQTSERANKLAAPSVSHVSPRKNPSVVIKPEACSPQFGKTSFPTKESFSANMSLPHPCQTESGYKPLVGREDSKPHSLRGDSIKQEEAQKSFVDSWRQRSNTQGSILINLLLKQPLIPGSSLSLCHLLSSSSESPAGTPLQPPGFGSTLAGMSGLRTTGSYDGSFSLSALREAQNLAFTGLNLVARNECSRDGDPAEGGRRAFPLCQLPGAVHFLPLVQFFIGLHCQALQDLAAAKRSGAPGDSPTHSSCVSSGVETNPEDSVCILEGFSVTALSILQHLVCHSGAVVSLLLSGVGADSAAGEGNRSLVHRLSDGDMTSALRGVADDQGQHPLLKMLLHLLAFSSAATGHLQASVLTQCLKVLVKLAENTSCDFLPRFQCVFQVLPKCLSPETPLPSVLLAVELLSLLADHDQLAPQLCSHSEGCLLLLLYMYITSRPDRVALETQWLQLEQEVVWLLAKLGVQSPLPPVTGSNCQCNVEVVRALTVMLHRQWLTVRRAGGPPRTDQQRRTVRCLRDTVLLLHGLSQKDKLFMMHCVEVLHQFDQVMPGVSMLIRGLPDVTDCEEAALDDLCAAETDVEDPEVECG

| Structure (SMILES) | IC50 [µM] |
| --- | --- |
| Cc1nnc(-c2cc(N3CCOC[C@H]3C)nc3c(-c4ccn[nH]4)nccc23)o1 [Example 136, 2-[(3R)-3-methylmorpholin-4-yl]-4-(5-methyl-1,3,4-oxadiazol-2-yl)-8-(1H-pyrazol-5-yl)-1,7-naphthyridine] | 0.0358 |
| C[C@@H]1COCCN1c1cc(N=S2(=O)CCCC2)c2ccnc(-c3ccn[nH]3)c2n1 [Example 137, N-{2-[(3R)-3-methylmorpholin-44-yl]-8-(1H-pyrazol-5-yl)-1,7-naphthyridin-4-yl}tetrahydro-1H-1λ^4-thiophen-1-imine 1-oxide] | 0.026 |
| C[C@@H]1COCCN1c1cc(N=S(C)(=O)c2ccc(F)cc2)c2ccnc(-c3ccn[nH]3)c2n1 (stereo partly drawn) [Example 138, 4-{[(4-fluorophenyl)(methyl)oxido-λ^6-sulfanylidene]amino}-2-[(3R)-3-methylmorpholin-4-yl]-8-(1H-pyrazol-5-yl)-1,7-naphthyridine] | 0.029 |
| C[C@@H]1COCCN1c1cc(N=S(C)(=O)c2ccccc2F)c2ccnc(-c3ccn[nH]3)c2n1 (stereo partly drawn) [Example 139, 4-{[(2-fluorophenyl)(methyl)oxido-λ^6-sulfanylidene]amino}-2-[(3R)-3-methylmorpholin-4-yl]-8-(1H-pyrazol-5-yl)-1,7-naphthyridine] | 0.0417 |
| C[C@@H]1COCCN1c1cc(P(C)(C)=O)c2ccnc(-c3ccn[nH]3)c2n1 [Example 142, 4-(dimethylphosphoryl)-2-[(3R)-3-methylmorpholin-4-yl]-8-(1H-pyrazol-5-yl)-1,7-naphthyridine] | 0.0441 |
| CCP(=O)(CC)c1cc(N2CCOC[C@H]2C)nc2c(-c3ccn[nH]3)nccc12 [Example 143, 4-(diethylphosphoryl)-2-[(3R)-3-methylmorpholin-4-yl]-8-(1H-pyrazol-5-yl)-1,7-naphthyridine] | 0.0277 |
| CCOP(=O)(CC(C)C)c1cc(N2CCOC[C@H]2C)nc2c(-c3ccn[nH]3)nccc12 (stereo partly drawn) [Example 144, Ethyl isobutyl{2-[(3R)-3-methylmorpholin-4-yl]-8-(1H-pyrazol-5-yl)-1,7-naphthyridin-4-yl}phosphinate] | 0.0751 |
| C[C@@H]1COCCN1c1cc(N2CCOCC2)c2ccnc(-c3ccn[nH]3)c2n1 [Example 145, 2-[(3R)-3-methylmorpholin-4-yl]-4-(morpholin-4-yl)-8-(1H-pyrazol-5-yl)-1,7-naphthyridine] | 0.0182 |
| CC(C)Cn1nccc1-c1cc(N2CCOC[C@H]2C)nc2c(-c3ccn[nH]3)nccc12 [Example 146, 4-(1-isobutyl-1H-pyrazol-5-yl)-2-[(3R)-3-methylmorpholin-4-yl]-8-(1H-pyrazol-5-yl)-1,7-naphthyridine] | 0.0357 |
| C[C@@H]1COCCN1c1cc(-c2cnc(S(C)(=O)=O)c(F)c2)c2ccnc(-c3ccn[nH]3)c2n1 [Example 147, 4-[5-fluoro-6-(methylsulfonyl)pyridin-3-yl]-2-[(3R)-3-methylmorpholin-4-yl]-8-(1H-pyrazol-5-yl)-1,7-naphthyridine] | 0.0454 |
| C[C@@H]1COCCN1c1cc(N2CCOCC2)nc2c(-c3ccn[nH]3)nccc12 [Example 148, 4-[(3R)-3-methylmorpholin-4-yl]-2-(morpholin-4-yl)-8-(1H-pyrazol-5-yl)-1,7-naphthyridine] | 0.0479 |
| Cc1cn[nH]c1-c1cc(N2CCOC[C@H]2C)nc2c(-c3ccn[nH]3)nccc12 [Example 149, 2-[(3R)-3-methylmorpholin-4-yl]-4-(4-methyl-1H-pyrazol-5-yl)-8-(1H-pyrazol-5-yl)-1,7-naphthyridine] | 0.0484 |
| C[C@@H]1COCCN1c1cc(-c2cc(S(C)(=O)=O)ccc2F)c2ccnc(-c3ccn[nH]3)c2n1 [Example 150, 4-[2-fluoro-5-(methylsulfonyl)phenyl]-2-[(3R)-3-methylmorpholin-4-yl]-8-(1H-pyrazol-5-yl)-1,7-naphthyridine] | 0.0503 |
| CC(C)S(=O)(=O)c1ccc(-c2cc(N3CCOC[C@H]3C)nc3c(-c4ccn[nH]4)nccc23)cc1 [Example 151, 4-[4-(isopropylsulfonyl)phenyl]-2-[(3R)-3-methylmorpholin-4-yl]-8-(1H-pyrazol-5-yl)-1,7-naphthyridine] | 0.0512 |
| C[C@@H]1COCCN1c1cc(-c2cccc(F)n2)c2ccnc(-c3ccn[nH]3)c2n1 [Example 152, 4-(6-fluoropyridin-2-yl)-2-[(3R)-3-methylmorpholin-4-yl]-8-(1H-pyrazol-5-yl)-1,7-naphthyridine] | 0.0518 |
| CCn1cnc(-c2cc(N3CCOC[C@H]3C)nc3c(-c4ccn[nH]4)nccc23)c1 [Example 153, 4-(1-ethyl-1H-imidazol-4-yl)-2-[(3R)-3-methylmorpholin-4-yl]-8-(1H-pyrazol-5-yl)-1,7-naphthyridine] | 0.0547 |
| C[C@@H]1COCCN1c1cc(N2CCC[C@H]2C(N)=O)c2ccnc(-c3ccn[nH]3)c2n1 [Example 154, 1-{2-[(3R)-3-methylmorpholin-4-yl]-8-(1H-pyrazol-5-yl)-1,7-naphthyridin-4-yl}prolinamide] | 0.055 |
| C[C@@H]1COCCN1c1cc(-c2cccnc2N)c2ccnc(-c3ccn[nH]3)c2n1 [Example 155, 3-{2-[(3R)-3-methylmorpholin-4-yl]-8-(1H-pyrazol-5-yl)-1,7-naphthyridin-4-yl}pyridin-2-amine] | 0.0633 |
| C[C@@H]1COCCN1c1cc(-c2ccnn2CC(F)(F)F)c2ccnc(-c3ccn[nH]3)c2n1 [Example 156, 2-[(3R)-3-methylmorpholin-4-yl]-8-(1H-pyrazol-5-yl)-4-[1-(2,2,2-trifluoroethyl)-1H-pyrazol-5-yl]-1,7-naphthyridine] | 0.0801 |
| C[C@@H]1COCCN1c1cc(N2CCN(C)C(=O)C2)c2ccnc(-c3ccn[nH]3)c2n1 [Example 157, 1-methyl-4-{2-[(3R)-3-methylmorpholin-4-yl]-8-(1H-pyrazol-5-yl)-1,7-naphthyridin-4-yl}piperazin-2-one] | 0.0918 |
| C[C@@H]1COCCN1c1cc(-c2ccn(CCF)n2)c2ccnc(-c3ccn[nH]3)c2n1 [Example 158, 4-[1-(2-fluoroethyl)-1H-pyrazol-3-yl]-2-[(3R)-3-methylmorpholin-4-yl]-8-(1H-pyrazol-5-yl)-1,7-naphthyridine] | 0.0135 |
| C[C@@H]1COCCN1c1cc(-c2ccnn2CCF)c2ccnc(-c3ccn[nH]3)c2n1 [Example 159, 4-[1-(2-fluoroethyl)-1H-pyrazol-5-yl]-2-[(3R)-3-methylmorpholin-4-yl]-8-(1H-pyrazol-5-yl)-1,7-naphthyridine] | 0.0165 |
| C[C@@H]1COCCN1c1cc(-c2ccn(CCO)n2)c2ccnc(-c3ccn[nH]3)c2n1 [Example 160, 2-(3-{2-[(3R)-3-methylmorpholin-4-yl]-8-(1H-pyrazol-5-yl)-1,7-naphthyridin-4-yl}-1H-pyrazol-1-yl)ethanol] | 0.0372 |
| C[C@@H]1COCCN1c1cc(-c2ccn(CC(C)(C)O)n2)c2ccnc(-c3ccn[nH]3)c2n1 [Example 161, 2-methyl-1-(3-{2-[(3R)-3-methylmorpholin-4-yl]-8-(1H-pyrazol-5-yl)-1,7-naphthyridin-4-yl}-1H-pyrazol-1-yl)propan-2-ol] | 0.0626 |
| C[C@@H]1CN(c2cc(N3CCOCC3)nc3c(-c4ccn[nH]4)nccc23)CCO1 [Example 162, 4-[(2R)-2-methylmorpholin-4-yl]-2-(morpholin-4-yl)-8-(1H-pyrazol-5-yl)-1,7-naphthyridine] | 0.1 |

same assay, conditions: tracer B, TR-FRET; read-out: ATR binding (tracer B) IC50

| Structure (SMILES) | IC50 [µM] |
| --- | --- |
| CC(C)S(=O)(=O)c1ccc(-c2cc(N3CCOC[C@H]3C)nc3c(-c4ccn[nH]4)nccc23)cc1 [Example 151, 4-[4-(isopropylsulfonyl)phenyl]-2-[(3R)-3-methylmorpholin-4-yl]-8-(1H-pyrazol-5-yl)-1,7-naphthyridine] | 0.0232 |
